Values quoted from earlier work in patent US9839630B2, “Method of preparing (+)-1,4-dihydro-7-[(3S,4S)-3-methoxy-4-(methylamino)-1-pyrrolidinyl]-4-oxo-1-(2-thiazolyl)-1,8-naphthyridine-3-carboxylic acid” (Sunesis Pharmaceuticals, Inc., priority 2008, dated 2017).

Assays:
xenografts = settings: literature
acute myeloid leukemia = settings: human cancer patients, clinical trials
[1] = system: various cancer cell lines; settings: literature
ovarian cancer = settings: human cancer patients, clinical trials
[2] = data of WO 2007/146335

| SMILES | preclinical activity against xenografts (xenografts) | clinical activity against acute myeloid leukemia (acute myeloid leukemia) | preclinical activity against various cancer cell lines [1] | clinical activity against ovarian cancer (ovarian cancer) | activity in a cytotoxicity assay [2] |
| --- | --- | --- | --- | --- | --- |
| CN[C@H]1CN(c2ccc3c(=O)c(C(=O)O)cn(-c4nccs4)c3n2)C[C@@H]1OC [SNS-595, (+)-1,4-dihydro-7-[(3S,4S)-3-methoxy-4-(methylamino)-1-pyrrolidinyl]-4-oxo-1-(2-thiazolyl)-1,8-naphthyridine-3-carboxylic acid] | preclinical activity | clinical activity | preclinical activity | clinical activity |  |
| CO[C@H]1CN(c2ccc3c(=O)c(C(=O)O)cn(-c4nccs4)c3n2)C[C@@H]1N [N-desmethyl compound, (+)-1,4-dihydro-7-[(3S,4S)-3-methoxy-4-amino-1-pyrrolidinyl]-4-oxo-1-(2-thiazolyl)-1,8-naphthyridine-3-carboxylic acid] |  |  |  |  | active |
